Assay results taken from ChEMBL document CHEMBL4507274 (2021).

Columns and labels:
[1] = system: Receptor-type tyrosine-protein kinase FLT3 (Homo sapiens), P36888 [UNDEFINED MUTATION]; settings: Compound concentration 100.0 nM
[2] = molecular target: Death-associated protein kinase 1 (Homo sapiens) (UniProt P53355); settings: Compound concentration 100.0 nM
[3] = molecular target: Mitogen-activated protein kinase kinase kinase 6 (Homo sapiens) (UniProt O95382); settings: Compound concentration 100.0 nM
[4] = molecular target: Mitogen-activated protein kinase kinase kinase 2 (Homo sapiens) (UniProt Q9Y2U5); settings: Compound concentration 100.0 nM
[5] = molecular target: Activin receptor type-1 (Homo sapiens) (UniProt Q04771); settings: Compound concentration 100.0 nM
[6] = molecular target: Muscarinic acetylcholine receptor M5 (Homo sapiens) (UniProt P08912); settings: Compound concentration 10.0 uM
[7] = molecular target: Dual specificity mitogen-activated protein kinase kinase 5 (Homo sapiens) (UniProt Q13163); settings: Compound concentration 100.0 nM
[8] = molecular target: BMP-2-inducible protein kinase (Homo sapiens) (UniProt Q9NSY1); settings: Compound concentration 100.0 nM
Sequence of BMP-2-inducible protein kinase (Homo sapiens) (Q9NSY1 whole entry, looked up): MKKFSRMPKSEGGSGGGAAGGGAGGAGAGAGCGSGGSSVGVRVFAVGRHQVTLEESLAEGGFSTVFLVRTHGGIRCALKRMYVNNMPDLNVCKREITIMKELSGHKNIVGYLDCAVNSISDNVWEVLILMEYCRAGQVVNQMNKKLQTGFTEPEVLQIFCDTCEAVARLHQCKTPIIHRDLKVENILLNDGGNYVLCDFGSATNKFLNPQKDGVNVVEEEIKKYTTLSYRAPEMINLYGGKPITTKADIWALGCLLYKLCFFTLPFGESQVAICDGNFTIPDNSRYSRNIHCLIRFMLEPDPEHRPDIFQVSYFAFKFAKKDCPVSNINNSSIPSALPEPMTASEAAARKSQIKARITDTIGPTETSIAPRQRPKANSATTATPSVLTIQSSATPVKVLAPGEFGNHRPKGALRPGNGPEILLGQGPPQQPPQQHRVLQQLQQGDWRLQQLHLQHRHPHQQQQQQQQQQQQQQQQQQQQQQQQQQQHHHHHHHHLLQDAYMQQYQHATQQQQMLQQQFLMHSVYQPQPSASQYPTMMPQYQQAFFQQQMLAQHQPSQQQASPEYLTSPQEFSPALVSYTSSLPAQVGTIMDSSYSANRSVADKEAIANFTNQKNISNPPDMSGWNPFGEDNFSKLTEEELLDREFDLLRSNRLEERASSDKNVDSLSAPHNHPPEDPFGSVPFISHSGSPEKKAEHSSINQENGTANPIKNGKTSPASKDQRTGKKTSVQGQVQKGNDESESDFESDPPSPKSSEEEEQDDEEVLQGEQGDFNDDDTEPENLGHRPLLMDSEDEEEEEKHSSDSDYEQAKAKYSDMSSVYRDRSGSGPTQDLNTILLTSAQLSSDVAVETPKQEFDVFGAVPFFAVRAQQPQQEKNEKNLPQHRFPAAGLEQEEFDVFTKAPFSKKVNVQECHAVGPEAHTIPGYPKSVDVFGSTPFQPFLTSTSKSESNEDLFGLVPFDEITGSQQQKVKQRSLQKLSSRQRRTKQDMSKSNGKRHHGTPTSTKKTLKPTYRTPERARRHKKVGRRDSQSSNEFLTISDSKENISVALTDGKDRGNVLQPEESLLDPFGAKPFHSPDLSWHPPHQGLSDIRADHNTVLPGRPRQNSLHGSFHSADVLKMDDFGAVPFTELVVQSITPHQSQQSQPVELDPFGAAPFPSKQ

[9] = molecular target: Tyrosine-protein kinase CSK (Homo sapiens) (UniProt P41240); settings: Compound concentration 100.0 nM
Sequence of Tyrosine-protein kinase CSK (Homo sapiens) (P41240 2-450 limits assumed): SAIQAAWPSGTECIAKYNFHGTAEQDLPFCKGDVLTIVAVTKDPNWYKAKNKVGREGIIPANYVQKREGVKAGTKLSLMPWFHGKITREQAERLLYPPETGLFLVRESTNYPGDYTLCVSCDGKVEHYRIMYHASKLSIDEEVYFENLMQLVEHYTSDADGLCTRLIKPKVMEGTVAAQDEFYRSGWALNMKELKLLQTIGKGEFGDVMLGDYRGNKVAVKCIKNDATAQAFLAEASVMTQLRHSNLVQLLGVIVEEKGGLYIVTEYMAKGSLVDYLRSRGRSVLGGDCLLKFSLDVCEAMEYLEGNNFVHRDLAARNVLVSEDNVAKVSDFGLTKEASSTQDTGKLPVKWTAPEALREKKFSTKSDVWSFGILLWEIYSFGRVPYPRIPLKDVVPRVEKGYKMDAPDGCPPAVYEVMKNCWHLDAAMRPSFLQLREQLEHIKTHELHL

[10] = molecular target: RAC-gamma serine/threonine-protein kinase (Homo sapiens) (UniProt Q9Y243); settings: Compound concentration 100.0 nM
[11] = molecular target: Serine/threonine-protein kinase pim-3 (Homo sapiens) (UniProt Q86V86); settings: Compound concentration 100.0 nM
[12] = molecular target: Mitogen-activated protein kinase 9 (Homo sapiens) (UniProt P45984); settings: Compound concentration 100.0 nM
Sequence of Mitogen-activated protein kinase 9 (Homo sapiens) (P45984 whole entry, looked up): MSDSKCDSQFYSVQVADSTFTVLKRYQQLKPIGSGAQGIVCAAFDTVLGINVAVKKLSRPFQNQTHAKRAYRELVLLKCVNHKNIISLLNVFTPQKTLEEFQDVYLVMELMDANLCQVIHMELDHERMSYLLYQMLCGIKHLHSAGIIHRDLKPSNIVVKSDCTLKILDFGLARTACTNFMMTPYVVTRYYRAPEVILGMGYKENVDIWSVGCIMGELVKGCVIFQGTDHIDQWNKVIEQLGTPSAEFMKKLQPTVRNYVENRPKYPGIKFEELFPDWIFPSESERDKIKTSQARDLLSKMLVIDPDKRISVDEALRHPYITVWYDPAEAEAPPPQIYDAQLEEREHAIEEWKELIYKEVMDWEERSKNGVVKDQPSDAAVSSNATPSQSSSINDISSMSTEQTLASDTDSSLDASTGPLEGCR

[13] = molecular target: Activin receptor type-1-like (Homo sapiens) (UniProt P37023); settings: Compound concentration 100.0 nM
[14] = molecular target: Calcium/calmodulin-dependent protein kinase type 1G (Homo sapiens) (UniProt Q96NX5); settings: Compound concentration 100.0 nM
[15] = molecular target: Dual serine/threonine and tyrosine protein kinase (Homo sapiens) (UniProt Q6XUX3); settings: Compound concentration 100.0 nM
[16] = system: Tyrosine-protein kinase ABL1 (Homo sapiens), P00519 [T315I]; settings: Compound concentration 100.0 nM
[17] = molecular target: GABA-A receptor; anion channel (Rattus norvegicus) (UniProt O09028+P15431+P18506+P18508+P19969+P20236+P23574+P23576+P28471+P28473+P30191+P62813+P63079+P63138+Q91ZM7+Q9ES14); settings: Compound concentration 10.0 uM
[18] = molecular target: Cyclin-dependent kinase 4 (Homo sapiens) (UniProt P11802); settings: Compound concentration 100.0 nM
Sequence of Cyclin-dependent kinase 4 (Homo sapiens) (P11802 whole entry): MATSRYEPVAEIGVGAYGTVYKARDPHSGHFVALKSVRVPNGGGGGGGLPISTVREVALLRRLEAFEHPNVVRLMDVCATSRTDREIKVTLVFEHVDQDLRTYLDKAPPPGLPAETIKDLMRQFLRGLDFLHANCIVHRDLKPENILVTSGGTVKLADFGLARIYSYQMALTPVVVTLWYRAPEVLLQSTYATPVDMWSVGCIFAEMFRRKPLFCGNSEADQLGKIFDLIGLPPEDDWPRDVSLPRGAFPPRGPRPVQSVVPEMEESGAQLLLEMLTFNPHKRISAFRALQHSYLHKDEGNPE

[19] = molecular target: Serine/threonine-protein kinase Nek7 (Homo sapiens) (UniProt Q8TDX7); settings: Compound concentration 100.0 nM
[20] = molecular target: Tyrosine-protein kinase JAK1 (Homo sapiens) (UniProt P23458); settings: Compound concentration 100.0 nM
Sequence of Tyrosine-protein kinase JAK1 (Homo sapiens) (P23458 whole entry): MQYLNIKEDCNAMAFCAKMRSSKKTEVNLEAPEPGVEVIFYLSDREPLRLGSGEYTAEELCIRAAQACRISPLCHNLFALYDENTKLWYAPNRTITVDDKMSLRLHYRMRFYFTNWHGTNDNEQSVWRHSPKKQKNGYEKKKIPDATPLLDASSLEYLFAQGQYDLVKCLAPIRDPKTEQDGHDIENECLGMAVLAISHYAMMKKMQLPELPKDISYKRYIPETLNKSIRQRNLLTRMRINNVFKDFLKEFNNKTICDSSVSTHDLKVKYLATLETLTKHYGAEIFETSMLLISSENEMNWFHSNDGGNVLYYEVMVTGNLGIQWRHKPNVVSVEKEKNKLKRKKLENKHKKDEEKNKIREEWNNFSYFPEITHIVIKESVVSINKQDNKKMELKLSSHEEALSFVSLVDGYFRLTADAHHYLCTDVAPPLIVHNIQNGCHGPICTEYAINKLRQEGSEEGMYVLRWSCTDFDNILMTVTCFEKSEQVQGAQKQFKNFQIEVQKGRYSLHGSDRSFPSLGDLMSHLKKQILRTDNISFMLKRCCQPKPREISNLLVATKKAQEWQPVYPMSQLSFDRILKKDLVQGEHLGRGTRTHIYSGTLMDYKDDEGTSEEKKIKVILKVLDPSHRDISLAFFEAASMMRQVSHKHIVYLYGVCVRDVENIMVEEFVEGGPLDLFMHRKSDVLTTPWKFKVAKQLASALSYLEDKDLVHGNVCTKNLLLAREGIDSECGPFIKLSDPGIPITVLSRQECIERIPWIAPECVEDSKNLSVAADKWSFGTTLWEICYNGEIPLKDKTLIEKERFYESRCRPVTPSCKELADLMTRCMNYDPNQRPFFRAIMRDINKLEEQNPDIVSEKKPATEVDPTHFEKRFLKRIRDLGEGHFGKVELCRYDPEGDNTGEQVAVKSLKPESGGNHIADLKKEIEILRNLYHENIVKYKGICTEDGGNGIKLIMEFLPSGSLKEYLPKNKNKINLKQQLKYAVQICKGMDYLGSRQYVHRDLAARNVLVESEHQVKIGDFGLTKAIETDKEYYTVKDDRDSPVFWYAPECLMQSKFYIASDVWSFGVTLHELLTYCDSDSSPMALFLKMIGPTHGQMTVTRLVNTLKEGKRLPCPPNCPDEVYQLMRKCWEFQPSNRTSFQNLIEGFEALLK

[21] = molecular target: Dual specificity protein kinase TTK (Homo sapiens) (UniProt P33981); settings: Compound concentration 100.0 nM
[22] = molecular target: Serine/threonine-protein kinase TBK1 (Homo sapiens) (UniProt Q9UHD2); settings: Compound concentration 100.0 nM
[23] = molecular target: Dual specificity protein kinase CLK1 (Homo sapiens) (UniProt P49759); settings: Compound concentration 100.0 nM
[24] = molecular target: T1, Serine/threonine-protein kinase 3 (Homo sapiens) (UniProt Q13188); settings: Compound concentration 100.0 nM
T1 sequence (whole entry): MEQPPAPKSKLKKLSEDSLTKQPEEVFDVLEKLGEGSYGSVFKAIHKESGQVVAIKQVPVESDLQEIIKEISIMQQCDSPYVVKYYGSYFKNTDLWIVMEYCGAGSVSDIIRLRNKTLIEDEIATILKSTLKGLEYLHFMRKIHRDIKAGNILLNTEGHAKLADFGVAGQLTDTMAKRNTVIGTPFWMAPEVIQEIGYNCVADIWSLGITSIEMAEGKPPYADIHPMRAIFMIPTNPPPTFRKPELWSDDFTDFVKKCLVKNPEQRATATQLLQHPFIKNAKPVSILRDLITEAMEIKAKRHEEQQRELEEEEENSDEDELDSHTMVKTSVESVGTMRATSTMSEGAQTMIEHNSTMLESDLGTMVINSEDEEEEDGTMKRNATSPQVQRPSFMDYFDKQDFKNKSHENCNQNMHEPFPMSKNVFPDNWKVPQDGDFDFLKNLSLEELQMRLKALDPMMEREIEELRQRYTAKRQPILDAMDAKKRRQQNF

[25] = molecular target: Ribosomal protein S6 kinase alpha-4 (Homo sapiens) (UniProt O75676); settings: Compound concentration 100.0 nM
[26] = molecular target: Protein kinase C eta type (Homo sapiens) (UniProt P24723); settings: Compound concentration 100.0 nM
[27] = molecular target: Histamine H4 receptor (Homo sapiens) (UniProt Q9H3N8); settings: Compound concentration 10.0 uM
[28] = molecular target: Ribosomal protein S6 kinase alpha-3 (Homo sapiens) (UniProt P51812); settings: Compound concentration 100.0 nM
Sequence of Ribosomal protein S6 kinase alpha-3 (Homo sapiens) (P51812 whole entry): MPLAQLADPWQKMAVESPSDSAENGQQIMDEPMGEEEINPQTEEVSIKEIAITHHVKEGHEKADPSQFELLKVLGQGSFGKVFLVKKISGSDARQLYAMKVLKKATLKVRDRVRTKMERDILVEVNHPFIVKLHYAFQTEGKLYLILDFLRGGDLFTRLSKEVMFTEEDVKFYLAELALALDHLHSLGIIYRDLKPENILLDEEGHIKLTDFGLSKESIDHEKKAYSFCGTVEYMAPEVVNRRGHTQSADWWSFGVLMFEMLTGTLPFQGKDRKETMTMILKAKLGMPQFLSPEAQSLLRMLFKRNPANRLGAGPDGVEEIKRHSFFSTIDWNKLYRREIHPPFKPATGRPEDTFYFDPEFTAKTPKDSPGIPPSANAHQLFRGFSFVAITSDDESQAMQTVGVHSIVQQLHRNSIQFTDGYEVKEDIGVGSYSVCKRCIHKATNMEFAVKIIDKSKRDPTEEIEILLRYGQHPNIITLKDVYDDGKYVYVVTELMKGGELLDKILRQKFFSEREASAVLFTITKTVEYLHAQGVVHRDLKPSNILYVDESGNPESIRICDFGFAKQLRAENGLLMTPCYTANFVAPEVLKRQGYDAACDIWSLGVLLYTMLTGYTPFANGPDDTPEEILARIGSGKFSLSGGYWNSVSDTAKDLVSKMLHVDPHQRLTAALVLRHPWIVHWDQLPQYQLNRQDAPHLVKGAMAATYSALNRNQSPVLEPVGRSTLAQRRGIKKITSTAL

[29] = molecular target: Glycogen synthase kinase-3 beta (Homo sapiens) (UniProt P49841); settings: Compound concentration 100.0 nM
[30] = system: Leucine-rich repeat serine/threonine-protein kinase 2 (Homo sapiens), Q5S007 [G2019S]; settings: Compound concentration 100.0 nM
[31] = molecular target: Cyclin-dependent kinase 17 (Homo sapiens) (UniProt Q00537); settings: Compound concentration 100.0 nM
[32] = molecular target: Receptor-type tyrosine-protein kinase FLT3 (Homo sapiens) (UniProt P36888); settings: Compound concentration 100.0 nM
[33] = molecular target: Transient receptor potential cation channel subfamily M member 6 (Homo sapiens) (UniProt Q9BX84); settings: Compound concentration 100.0 nM
[34] = molecular target: Serine/threonine-protein kinase NLK (Homo sapiens) (UniProt Q9UBE8); settings: Compound concentration 100.0 nM
[35] = molecular target: 5-hydroxytryptamine receptor 6 (Homo sapiens) (UniProt P50406); settings: Compound concentration 10.0 uM
Sequence of 5-hydroxytryptamine receptor 6 (Homo sapiens) (P50406 whole entry): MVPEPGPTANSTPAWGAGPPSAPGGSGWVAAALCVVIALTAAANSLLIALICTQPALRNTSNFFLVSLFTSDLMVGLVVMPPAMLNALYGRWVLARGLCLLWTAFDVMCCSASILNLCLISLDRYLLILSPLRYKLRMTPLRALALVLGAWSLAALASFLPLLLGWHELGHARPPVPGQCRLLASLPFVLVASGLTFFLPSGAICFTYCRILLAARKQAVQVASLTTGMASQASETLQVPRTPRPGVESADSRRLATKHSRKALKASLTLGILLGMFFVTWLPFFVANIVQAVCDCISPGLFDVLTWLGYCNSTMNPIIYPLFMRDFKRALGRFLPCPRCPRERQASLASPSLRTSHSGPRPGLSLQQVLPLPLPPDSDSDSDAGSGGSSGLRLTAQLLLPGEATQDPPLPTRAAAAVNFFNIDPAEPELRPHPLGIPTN

Cn1cc(Cl)c2c(Oc3c(F)cc(Nc4cc(Cl)nc(N)n4)cc3F)ccnc21 [BAY-4900]
inactive: residual activity [1] 79% | residual activity [2] 100% | residual activity [3] 100% | residual activity [4] 79% | residual activity [5] 85% | inhibition [6] 3.3% | residual activity [7] 100% | residual activity [8] 100% | residual activity [9] 100% | residual activity [10] 98% | residual activity [11] 100% | residual activity [12] 86% | residual activity [13] 93% | residual activity [14] 100% | residual activity [15] 98% | residual activity [16] 84% | inhibition [17] 1.6% | residual activity [18] 85% | residual activity [19] 100% | residual activity [20] 89% | residual activity [21] 100% | residual activity [22] 100% | residual activity [23] 96% | residual activity [24] 92% | residual activity [25] 100% | residual activity [26] 98% | inhibition [27] -9.04% | residual activity [28] 79% | residual activity [29] 90% | residual activity [30] 100% | residual activity [31] 100% | residual activity [32] 83% | residual activity [33] 77% | residual activity [34] 100% | inhibition [35] -1.64%

Cc1c[nH]c2nccc(Oc3c(F)cc(Nc4cc(Cl)nc(N)n4)cc3F)c12 [BAY-549]
inactive: residual activity [1] 87% | residual activity [2] 98% | residual activity [3] 100% | residual activity [4] 89% | residual activity [5] 94% | inhibition [6] -3.6% | residual activity [7] 82% | residual activity [8] 100% | residual activity [9] 87% | residual activity [10] 78% | residual activity [11] 100% | residual activity [12] 93% | residual activity [13] 100% | residual activity [14] 97% | residual activity [15] 67% | residual activity [16] 80% | inhibition [17] 4.87% | residual activity [18] 67% | residual activity [19] 100% | residual activity [20] 80% | residual activity [21] 96% | residual activity [22] 96% | residual activity [23] 83% | residual activity [24] 69% | residual activity [25] 83% | residual activity [26] 74% | inhibition [27] -8.74% | residual activity [28] 73% | residual activity [29] 98% | residual activity [30] 100% | residual activity [31] 81% | residual activity [32] 75% | residual activity [33] 83% | residual activity [34] 100% | inhibition [35] -1.5%
